Measurements taken from US4883791A, “25S,26-dihydroxycholecalciferol in the treatment of hypercalcitriolemic disease states” (Board of Regents, The University of Texas System, priority 1987, dated 1989).
“Also recorded” adds a separate entry of the source.

Columns and labels:
[1] = Serum 25S,26(OH)2 D level after administration (rat serum vitamin D binding protein assay); type: in vivo, Sprague-Dawley rats (adult female); settings: mean ± SE
Excerpt: (§1) Adult female Sprague-Dawley rats weighing between 190-200 g were used in all studies and were purchased from Harlan (Houston, TX). The animals were housed in the animal resource facility and were fed a standard vitamin D-replete rat chow diet (2.0% calcium and 0.9% phorphorus, Tekland, Winfield, OH) ad lib. After four to five days of equlibration the animals were divided into appropriate study groups and injected subcutaneously each day with various doses of 25(S),26(OH)2 D3 or 1,25(OH)2 D3 metabolites. In some experiments, animals received both metabolites as two separate injections. Control animals received only vehicle (propylene glycol).
Two ml of serum was obtained for each rat for measurement of 25(S),26(OH)2 D3, and 1,25-(OH)2 D3. […] This chromatographic system effectively separates 250HD (5-11 ml) from the dihydroxy metabolites (14-30 ml). The trihydroxy metabolite 1,25,26(OH)3 D is eluted from the column by changing the solvent system to 8:2:2:0.015 (hexane:chloroform:methanol:H2 O) after elution of the dihydroxy metabolites and collecting the next 12 ml.
250HD was purified on a 5% 2-propanol in hexane solvent system. The three dihydroxyvitamin D metabolites were isolated and purified using an 11% 2-propanol in hexane solvent system. […] The assay of 1,25(OH)2 D was accomplished using the chick intestinal receptor protein.
(§2) Values in parenthesis represent p value of significant difference between
(§3) dosed and control animals as determined by nonparametric analysis and
(§4) Welch's approximation to the t test. All values expressed as mean ± SE
(§5) for seven rats per group.
(§6) ^a 1,25(OH)2 D3 administered subcutaneously at a dose of
(§7) 0.15 μg/d/rat for three days
(§8) ^b 25S,26(OH)2 D3 administered subcutaneously for seven day
(§9) at a dose of 20 μg/d/rat; on days 5, 6, and 7 both 25S,26(OH)2
(§10) D3 and 1,25(OH)2 D3 (0.15 μg/d/rat) were given as two

[2] = Effect of 25S,26(OH)2 D3 administration on 1,25(OH)2 D3 mediated increases in serum 1,25(OH)2 D3; type: in vivo, Sprague-Dawley rats (adult female); settings: for serum 1,25(OH)2 D: mean ± SE
Excerpt: as §1
Two ml of serum was obtained for each rat for measurement of 25(S),26(OH)2 D3, and 1,25-(OH)2 D3. After spiking the samples with approximately 1200 cpm of radiolabeled 250HD3, 24,25-(OH)2 D3 and 1,25(OH)2 D3 and allowing the samples to equilibrate for 30 minutes, isolation of the vitamin D metabolites was accomplished as described in Bishop JE, Norman AW, Coburn JW, Roberts PA, Henry, HL 1980 "Determination of the concentration of 25-hydroxyvitamin D, 24,25-dihydroxyvitamin D and 1,25-dihydroxyvitamin D in a single two-milliliter plasma sample." Min Elect Metab 3: 181. Further separation and partial purification of the metabolites was effected with lipohilic Sephadex (Sigma, St. Louis, MO) liquid gel chromatography using a 9:1:1:0.015 (hexane:chloroform:methanol:H2 O) solvent system and a 10×1 cm gel bed as previously described by Eisman JA, Hamstra AJ, Kream BD, DeLuca HF, 1975, "A sensitive, precise and convenient method for determination of 1,25-dihydroxyvitamin D in human plasma." Arch Biochem Biophys 176: 235. This chromatographic system effectively separates 250HD (5-11 ml) from the dihydroxy metabolites (14-30 ml). The trihydroxy metabolite 1,25,26(OH)3 D is eluted from the column by changing the solvent system to 8:2:2:0.015 (hexane:chloroform:methanol:H2 O) after elution of the dihydroxy metabolites and collecting the next 12 ml.
Final resolution and purification of the vitamin D metabolites was performed with high pressure liquid chromatography as previously described in Zerwekh et al., 1983, "Extra-renal production of 24,25-dihydroxyvitaminD in chronic renal failure during 25-hydroxyvitamin D3 therapy." Kid Int. 23: 401 and Pak et al., 1982, "Effects of short-term glucocorticoid administration in primary hyperparathyroidism: comparison to sarcoidiosis J. Clin. Endrocrinol Metab. 54: 824. 250HD was purified on a 5% 2-propanol in hexane solvent system. The three dihydroxyvitamin D metabolites were isolated and purified using an 11% 2-propanol in hexane solvent system. The assay of 25S,26-(OH)2 D was performed using the rat serum vitamin D binding protein assay system described in Haddad JG, Chyu KF 1971 "competitive protein binding assay for 25-hydroxycholecalciferol." J Clin Endocrinol Metab 33: 992. The assay of 1,25(OH)2 D was accomplished using the chick intestinal receptor protein.
as §2, §3, §4, §5, §6, §7, §8, §9, §10

Compound | serum 25S,26(OH)2 D ([1]; Exp. 1, 1,25(OH)2 D3 alone, 0.15 μg/d/rat s.c., three days, seven rats, control 1.9 ± 0.2) | serum 25S,26(OH)2 D ([1]; Exp. 2, 1,25(OH)2 D3 alone s.c., seven rats, control 2.0 ± 0.2) | serum 25S,26(OH)2 D ([1]; Exp. 3, 1,25(OH)2 D3 alone s.c., seven rats, control 1.20 ± 0.1) | serum 1,25(OH)2 D ([2]; Exp. 1, 1,25(OH)2 D3 alone, 0.15 μg/d/rat s.c., three days, seven rats, control 25 ± 3, p < 0.001) | serum 1,25(OH)2 D ([2]; Exp. 2, 1,25(OH)2 D3 alone s.c., seven rats, control 23 ± 3, p = 0.006) | serum 1,25(OH)2 D ([2]; Exp. 3, 1,25(OH)2 D3 alone s.c., seven rats, control 27 ± 4, p < 0.001) | serum 25S,26(OH)2 D ([1]; Exp. 1, 25S,26(OH)2 D3 20 μg/d/rat s.c. seven days + 1,25(OH)2 D3 0.15 μg/d/rat days 5, 6, 7, control 1.9 ± 0.2, p < 0.001) | serum 25S,26(OH)2 D ([1]; Exp. 2, 25S,26(OH)2 D3 + 1,25(OH)2 D3 s.c., seven rats, control 2.0 ± 0.2, p < 0.01) | serum 25S,26(OH)2 D ([1]; Exp. 3, 25S,26(OH)2 D3 + 1,25(OH)2 D3 s.c., seven rats, control 1.20 ± 0.1, p < 0.006) | serum 1,25(OH)2 D ([2]; Exp. 1, 25S,26(OH)2 D3 20 μg/d/rat s.c. seven days + 1,25(OH)2 D3 0.15 μg/d/rat days 5, 6, 7, control 25 ± 3) | serum 1,25(OH)2 D ([2]; Exp. 2, 25S,26(OH)2 D3 + 1,25(OH)2 D3 s.c., seven rats, control 23 ± 3) | serum 1,25(OH)2 D ([2]; Exp. 3, 25S,26(OH)2 D3 + 1,25(OH)2 D3 s.c., seven rats, control 27 ± 4) | reduction of serum / endogenous 1,25-dihydroxycholecalciferol ([2]; result in words)
C=C1/C(=C\C=C2/CCC[C@]3(C)[C@@H]([C@H](C)CCCC(C)(C)O)CC[C@@H]23)C[C@@H](O)C[C@@H]1O [1,25(OH)2 D3, 1α,25-dihydroxycholecalciferol, reference compound] | 3.0 ± 0.8 ng/mL | 3.20 ± 0.3 ng/mL | 0.9 ± 0.3 ng/mL | 206 ± 17 pg/mL | 175 ± 52 pg/mL | 180 ± 45 pg/mL | – | – | – | – | – | – | –
C=C1CC[C@H](O)C/C1=C/C=C1\CCC[C@]2(C)[C@@H]([C@H](C)CCC[C@](C)(O)CO)CC[C@@H]12 [25S,26(OH)2 D3, 25S,26-dihydroxycholecalciferol] | – | – | – | – | – | – | 295 ± 7 ng/mL | 168 ± 14 ng/mL | 236 ± 28 ng/mL | 59 ± 3 pg/mL | 46 ± 4 pg/mL | 38 ± 6 pg/mL | lowers endogenous levels of 1α,25-dihydroxycholecalciferol; also recorded: active in reducing serum concentrations of 1,25-dihydroxycholecalciferol
